Patent US11197903B2, “Composition containing a bean extract for improving blood circulation and vascular health and method for improving blood circulation and vascular health” (AMOREPACIFIC CORPORATION, priority 2009, dated 2021)

Experiments:
[1] = tested on: rats fed high-cholesterol diet; assay: Serum and liver lipid levels in high-cholesterol diet animal model; assay type: in vivo, rat; conditions: 200 mg/kg orally, 4 weeks
Description: 8-week-old female rats weighing 250-300 g were kept in polycarbonate cages, 8 heads per cage, maintained at 22±2° C. and 55±15% relative humidity with 12/12-hr light/dark cycles. Normal diet or high-cholesterol diet was provided and water was given freely. Fenofibric acid (200 mg/kg) used for treatment of hyperlipidemia was suspended in 1% methyl cellulose (MC) and orally administered as a positive control. The seoritae extract (200 mg/kg) was orally administered once a day for 4 weeks. […] After the centrifugation, total cholesterol, LDL-cholesterol, HDL-cholesterol and triglyceride levels in the obtained serum were evaluated. The analysis was performed using an automated hematology analyzer and the Roche diagnostic kit. The result is shown in Table 17 (serum lipids) and Table 18 (liver lipids).

[2] = in vivo
Description: Bleeding time was compared for the cases where 20% ethanol seoritae extract, aspirin or clopidogrel was treated.

Row | bleeding time (FIG. 18) [2] | SMILES | Total cholesterol ([1]; liver) [µg/mg] | Triglyceride ([1]; liver) [µg/mg] | HDL-cholesterol ([1]; serum) [mg/dL] | LDL-cholesterol ([1]; serum) [mg/dL] | Total cholesterol ([1]; serum) [mg/dL]
1 | – | CC(C)(Oc1ccc(C(=O)c2ccc(Cl)cc2)cc1)C(=O)O [Positive control, Fenofibric acid] | 15.43 ± 0.52 | 185.39 ± 23.84 | 87.89 ± 6.84 | 75.34 ± 2.80 | 112.42 ± 13.33
2 | significant increase of bleeding time | CC(=O)Oc1ccccc1C(=O)O [aspirin] | – | – | – | – | –
3 | significant increase of bleeding time | COC(=O)[C@H](c1ccccc1Cl)N1CCc2sccc2C1 [clopidogrel] | – | – | – | – | –
